Assay results from US9663516B2, “Bicyclic-pyrimidinedione compounds” (MyoKardia, Inc., priority 2014, dated 2017).

Assays:
bovine cardiac myosin = bovine cardiac myosin (Bos taurus, UniProt Q9BE39); assay: Myosin inhibition assay (PK/LDH-coupled ATPase, bovine cardiac myofibrils); type: biochemical; settings: calcium concentration giving 50% activation, pH 6.8, read-out: bcMF pCa_6 IC50
Experimental: Small molecule agents were assessed for their ability to inhibit the enzymatic activity of bovine cardiac myosin using a biochemical assay that couples the release of ADP (adenosine diphosphate) from cardiac myosin to an enzymatic coupling system consisting of pyruvate kinase and lactate dehydrogenase (PK/LDH) and monitoring the absorbance decrease of NADH (at 340 nm) as a function of time. PK converts ADP to ATP (adenosine triphosphate) by converting PEP (phosphoenolpyruvate) to pyruvate. Pyruvate is then converted to lactate by LDH by converting NADH (nicotinamide adenine dinucleotide) to NAD (oxidized nicotinamide adenine dinucleotide). […] Prior to testing small molecule agents, the bovine myofibrils were assessed for their calcium responsiveness and the calcium concentration that achieves a 50% activation of the myofibril system was chosen as the final condition for assessing the inhibitory activity of the small molecule agents. All enzymatic activity was measured in a buffered solution containing 12 mM PIPES (piperazine-N,N′-bis(2-ethanesulfonic acid), 2 mM magnesium chloride at pH 6.8 (PM12 buffer). Final assay conditions were 1 mg/mL of bovine cardiac myofibrils, 0.4 mM PK/LDH, 50 uM ATP, 0.1 mg/mL BSA (bovine serum albumin), 10 ppm antifoam, 2 mM BME, 0.5 mM NADH, 1.5 mM PEP at the desired free calcium concentration required to achieve 50% activation of the myofibrils.
A dilution series of compound was created in DMSO such that the final desired concentration of compound would be achieved in a volume of 30 μL with a fixed DMSO concentration of 3.3% (v/v). Typically 1 μL of the dilution series were added to 384 well plate to achieve an 10 point dose response. Following the addition of 14 μL of a solution containing bovine cardiac myofibrils, PK/LDH and a solution of calcium (that achieved 50% activation), the enzymatic reaction was started with the addition of 15 μL of a solution containing ATP, PEP and NADH. The reaction progress was followed in a PerkinElmer Envision plate reader at ambient temperature using clear bottom plates. The plate reader was configured to read absorbance at 340 nm in kinetics mode for 15 minutes. Data were recorded as the slope of the absorbance response to time. The slopes of the absorbance response as a function of time were normalized to slopes on the plate containing DMSO. This normalized rate was then plotted as a function of small molecule concentration and the data was fitted to a four-parameter fit using EXCEL XLfit. The IC50 is the concentration at which fifty percent of the total response is inhibited.

[1] = system: adult rat ventricular myocytes; assay: Cardiomyocyte contractility assay (fractional shortening, IonOptix edge detection); type: cell-based; settings: 1 Hz pacing; for inhibition at 0.3 µM / inhibition at 1 µM / inhibition at 0.1 µM: Ventricular myocyte; for inhibition at 1 µM: 1.0 μM compound; for inhibition at 0.1 µM: 0.1 μM compound
Experimental: Contractility of adult rat ventricular myocytes is determined by edge detection with an IonOptix contractility system. Aliquots of myocytes in Tyrode buffer (137 mM NaCl, 3.7 mM KCL, 0.5 mM MgCl2, 1.5 mM CaCl2, 4 mM HEPES, 11 mM glucose) are placed in a perfusion chamber (Series 20 RC-27NE; Warner Instruments), allowed to adhere to the coverslip, and then perfused with 37° C. Tyrode buffer. Myocytes are filed stimulated at 1 Hz and 10V. Only myocytes with clear striations, quiescent prior to pacing, with a cell length of 120-180 microns, a basal fractional shortening equal to 3-8% of the cell length, and a contraction velocity greater than 100 microns per second are used for contractility experiments. To determine the response to compounds, myocytes are first perfused for 60 seconds with Tyrodes buffer followed by 5 minutes of compound and a 140 second washout with Tyrodes buffer. Data is continuously recorded using IonOptix software. Contractility data is analyzed using Ionwizard software (IonOptix). For each cell, 10-20 contractility transients were averaged and compared under basal (no compound) and compound-treated conditions. Compound activity is measured by effects on fractional shortening (FS), where fractional shortening is the ratio of the peak length of the cell at contraction divided by the basal cell length normalized to 100% for an untreated cell.

Chain of bovine cardiac myosin (Q9BE39 whole entry): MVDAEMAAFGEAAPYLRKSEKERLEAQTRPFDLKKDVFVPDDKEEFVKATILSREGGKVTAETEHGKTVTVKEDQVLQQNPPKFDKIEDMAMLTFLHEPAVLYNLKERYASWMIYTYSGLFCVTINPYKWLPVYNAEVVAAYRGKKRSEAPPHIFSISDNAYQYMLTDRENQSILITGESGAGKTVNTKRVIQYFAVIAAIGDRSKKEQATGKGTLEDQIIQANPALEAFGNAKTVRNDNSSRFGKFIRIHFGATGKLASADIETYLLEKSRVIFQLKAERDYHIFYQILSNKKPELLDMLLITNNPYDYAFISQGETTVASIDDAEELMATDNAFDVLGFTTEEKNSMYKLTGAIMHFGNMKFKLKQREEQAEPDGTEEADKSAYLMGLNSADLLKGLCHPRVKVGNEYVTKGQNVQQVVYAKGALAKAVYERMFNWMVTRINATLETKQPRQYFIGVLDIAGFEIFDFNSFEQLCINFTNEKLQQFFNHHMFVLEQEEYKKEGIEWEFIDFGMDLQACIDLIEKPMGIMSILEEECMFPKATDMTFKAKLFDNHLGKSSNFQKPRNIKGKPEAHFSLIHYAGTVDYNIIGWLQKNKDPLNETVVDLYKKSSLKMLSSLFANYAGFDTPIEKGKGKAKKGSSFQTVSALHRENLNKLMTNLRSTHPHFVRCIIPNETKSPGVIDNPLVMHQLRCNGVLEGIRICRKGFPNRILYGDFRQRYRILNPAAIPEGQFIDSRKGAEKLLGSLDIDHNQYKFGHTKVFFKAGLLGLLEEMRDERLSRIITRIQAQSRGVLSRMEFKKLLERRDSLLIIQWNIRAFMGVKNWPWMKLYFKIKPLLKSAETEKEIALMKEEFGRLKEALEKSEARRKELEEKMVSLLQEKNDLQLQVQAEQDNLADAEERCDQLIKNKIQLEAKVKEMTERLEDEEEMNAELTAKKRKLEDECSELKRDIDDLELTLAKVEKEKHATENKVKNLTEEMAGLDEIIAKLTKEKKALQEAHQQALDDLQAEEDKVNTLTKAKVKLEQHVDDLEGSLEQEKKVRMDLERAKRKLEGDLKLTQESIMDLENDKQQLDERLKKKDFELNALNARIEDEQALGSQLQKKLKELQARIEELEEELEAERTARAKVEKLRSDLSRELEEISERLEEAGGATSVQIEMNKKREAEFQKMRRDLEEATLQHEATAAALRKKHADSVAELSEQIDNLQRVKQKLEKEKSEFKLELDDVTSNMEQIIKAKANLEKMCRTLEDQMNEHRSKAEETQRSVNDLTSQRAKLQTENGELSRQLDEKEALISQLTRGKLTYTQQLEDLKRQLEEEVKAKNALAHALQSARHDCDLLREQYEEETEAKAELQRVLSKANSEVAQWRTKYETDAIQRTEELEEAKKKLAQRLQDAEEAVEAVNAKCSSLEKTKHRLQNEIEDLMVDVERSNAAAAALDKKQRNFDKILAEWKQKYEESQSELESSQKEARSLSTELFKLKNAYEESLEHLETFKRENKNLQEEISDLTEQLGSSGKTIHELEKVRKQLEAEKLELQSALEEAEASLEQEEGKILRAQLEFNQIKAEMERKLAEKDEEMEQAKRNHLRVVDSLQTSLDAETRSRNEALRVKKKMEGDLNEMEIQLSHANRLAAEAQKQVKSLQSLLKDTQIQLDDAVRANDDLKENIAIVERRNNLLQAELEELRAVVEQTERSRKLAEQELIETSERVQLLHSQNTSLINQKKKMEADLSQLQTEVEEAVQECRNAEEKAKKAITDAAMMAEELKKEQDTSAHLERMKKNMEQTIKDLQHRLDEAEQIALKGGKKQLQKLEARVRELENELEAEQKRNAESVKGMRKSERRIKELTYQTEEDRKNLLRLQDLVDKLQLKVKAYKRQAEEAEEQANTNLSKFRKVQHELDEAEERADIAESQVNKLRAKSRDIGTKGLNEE
Chain of bovine cardiac myosin (P85100 whole entry partner): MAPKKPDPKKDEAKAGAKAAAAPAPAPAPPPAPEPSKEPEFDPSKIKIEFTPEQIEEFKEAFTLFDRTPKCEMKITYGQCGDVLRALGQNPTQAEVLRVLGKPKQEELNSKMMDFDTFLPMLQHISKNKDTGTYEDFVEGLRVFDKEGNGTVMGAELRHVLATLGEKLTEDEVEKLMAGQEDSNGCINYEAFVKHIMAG
Chain of bovine cardiac myosin (Q3SZE5 whole entry partner): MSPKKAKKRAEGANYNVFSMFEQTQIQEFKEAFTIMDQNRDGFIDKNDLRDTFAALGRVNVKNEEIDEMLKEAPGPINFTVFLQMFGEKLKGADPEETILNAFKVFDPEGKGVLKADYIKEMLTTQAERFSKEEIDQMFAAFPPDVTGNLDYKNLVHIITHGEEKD

| IC50 (bovine cardiac myosin) [µM] | Compound | inhibition at 0.3 µM ([1]; 0.3 μM compound) [%] | inhibition at 1 µM [1] [%] | inhibition at 0.1 µM [1] [%] | Activity at 0.3 μM (fractional shortening inhibition) ([1]; 0.3 μM compound) |
| --- | --- | --- | --- | --- | --- |
| < 1 | O=c1[nH]c2c(c(=O)n1-c1cc(F)cc(F)c1)CC[C@H](C1CCC(F)(F)CC1)N2 [Compound 2, (R)-7-(4,4-Difluorocyclohexyl)-3-(3,5-difluorophenyl)-5,6,7,8-tetrahydropyrido[2,3-d]pyrimidine-2,4(1H,3H)-dione] | < 33 | > 66 | – | – |
| < 1 | CC(C)n1c(=O)[nH]c2c(c1=O)CC[C@H](c1ccc(F)cc1F)N2 [Compound 6, (R)-7-(2,4-Difluorophenyl)-3-isopropyl-5,6,7,8-tetrahydropyrido[2,3-d]pyrimidine-2,4(1H,3H)-dione] | 33 to 66 | > 66 | – | – |
| 1 to 15 | CCn1c(=O)[nH]c2c(c1=O)CC[C@H](c1ccc(F)c(F)c1)N2 [Compound 9, (R)-7-(3,4-Difluorophenyl)-3-ethyl-5,6,7,8-tetrahydropyrido[2,3-d]pyrimidine-2,4(1H,3H)-dione] | – | 33 to 66 | – | – |
| 1 to 15 | CCn1c(=O)[nH]c2c(c1=O)CC[C@H](c1ccccc1F)N2 [Compound 14] | < 33 | > 66 | – | – |
| 1 to 15 | CC[C@H](C)n1c(=O)[nH]c2c(c1=O)CC[C@H](c1ccc(F)c(F)c1)N2 [Compound 18] | 33 to 66 | – | – | – |
| 1 to 15 | CCn1c(=O)[nH]c2c(c1=O)CC[C@H](c1ccc(F)cc1)N2 [Compound 20] | – | 33 to 66 | – | – |
| 1 to 15 | O=c1[nH]c2c(c(=O)n1CC(F)F)CC[C@H](c1ccc(F)c(F)c1)N2 [Compound 22] | – | 33 to 66 | – | – |
| < 1 | O=c1[nH]c2c(c(=O)n1C1CCC1)CC[C@H](C1CCC(F)(F)CC1)N2 [Compound 31] | 33 to 66 | – | – | – |
| < 1 | CC(C)n1c(=O)[nH]c2c(c1=O)CC[C@H](C1CCC(F)(F)CC1)N2 [Compound 46] | – | > 66 | – | – |
| 1 to 15 | O=c1[nH]c2c(c(=O)n1-c1ccccc1)CC[C@H](c1ccc(F)c(F)c1)N2 [Compound 48] | < 33 | < 33 | – | – |
| 1 to 15 | CCn1c(=O)[nH]c2c(c1=O)CC[C@H](C1CCC(F)(F)CC1)N2 [Compound 53] | – | 33 to 66 | – | – |
| 1 to 15 | CC(C)n1c(=O)[nH]c2c(c1=O)CC[C@H](c1ccc(F)cc1)N2 [Compound 67] | 33 to 66 | – | – | – |
| 1 to 15 | O=c1[nH]c2c(c(=O)n1CC(F)(F)F)CC[C@H](c1ccc(F)c(F)c1)N2 [Compound 70] | – | 33 to 66 | – | – |
| 1 to 15 | CC1(n2c(=O)[nH]c3c(c2=O)CC[C@H](c2ccc(F)c(F)c2)N3)CC1 [Compound 81] | – | 33 to 66 | – | – |
| < 1 | CC[C@@H](C)n1c(=O)[nH]c2c(c1=O)CC[C@H](c1ccc(F)c(F)c1)N2 [Compound 83] | 33 to 66 | – | – | – |
| < 1 | CC(C)n1c(=O)[nH]c2c(c1=O)CC[C@](C)(c1ccccc1)N2 [Compound 106] | – | – | > 66 | – |
| 1 to 15 | (R)-3-Isopropyl-7-phenyl-7,8-dihydropyrido[2,3-d]pyrimidine-2,4,5(1H,3H,6H)-trione [Compound 1] | – | – | – | ++ (++ represents fractional shorting inhibition values from 33% to 66%) |

| Compound | IC50 (bovine cardiac myosin) [µM] | inhibition at 0.3 µM ([1]; 0.3 μM compound) [%] | inhibition at 1 µM [1] [%] | inhibition at 0.1 µM [1] [%] | Activity at 0.3 μM (fractional shortening inhibition) ([1]; 0.3 μM compound) |
| --- | --- | --- | --- | --- | --- |
| CC(C)n1c(=O)[nH]c2c(c1=O)CC[C@H](c1ccc(F)c(F)c1)N2 [Compound 4, (7R)-7-(3,4-difluorophenyl)-3-isopropyl-5,6,7,8-tetrahydropyrido[2,3-d]pyrimidine-2,4(1H,3H)-dione] | 1 to 15 | 33 to 66 | – | < 33 | – |
| CC(C)n1c(=O)[nH]c2c(c1=O)CC[C@H](c1cccc(F)c1)N2 [Compound 68, (R)-7-(3-Fluorophenyl)-3-isopropyl-5,6,7,8-tetrahydropyrido[2,3-d]pyrimidine-2,4(1H,3/H)-dione] | 1 to 15 | – | – | > 66 | – |
| CC(C)n1c(=O)[nH]c2c(c1=O)CC[C@H](c1ccccc1F)N2 [Compound 69, (R)-7-(2-Fluorophenyl)-3-isopropyl-5,6,7,8-tetrahydropyrido[2,3-d]pyrimidine-2,4(1H,3H)-dione] | 1 to 15 | – | – | > 66 | – |
| CC(C)n1c(=O)[nH]c2c(c1=O)CC(F)(F)[C@H](c1ccccc1)N2 [Compound 116, (S)-6,6-Difluoro-3-isopropyl-7-phenyl-5,6,7,8-tetrahydropyrido[2,3-d]pyrimidine-2,4(1H,3H)-dione] | 1 to 15 | 33 to 66 | > 66 | – | – |
